According to paper PMC9333195, “Discovery of 2-Phenylquinoline-4-Carboxylic Acid Derivatives as Novel Histone Deacetylase Inhibitors” (Frontiers in Chemistry, 2022):

Tests used:
K562 cells = test: CCK-8 antiproliferative assay, K562; details: for inhibition at 2 µM: Homo sapiens, K562, read-out: K562 percentage inhibitory rate; for K562 percentage inhibitory rate: 2.0 µM compound, K562 cells, CCK-8, mean of three experiments
Procedure: The proliferation of cancer cells was tested by CCK-8 assay. Briefly, cells were seeded in a 96-well plate with about 5 × 10^3 cells in each well. In the K652 cell screening, cells were treated with 2.0 μM of tested compounds. […] The light absorbance at 450 nm was measured by using an Opsys microplate reader (Dynex Technologies, Chantilly, VA, United States).

[1] = test system: Hela nucleus extract containing a mixture of HDAC isoforms; test: In vitro HDAC inhibitory assay, HeLa cell nuclear extract screening at 2 µM; type: biochemical; details: 2.0 µM compound, mean of three experiments
Procedure: The HDAC enzyme inhibitory activities of synthesized compounds were evaluated against Hela nucleus extract containing a mixture of HDAC isoforms. Percentage inhibitory rate (PIR) was calculated to determine the activity of tested compounds (Table 1).
All HDAC enzymes were purchased from BPS Bioscience. […] The reaction was terminated by adding 100 μl of imaging agent containing trypsin and trichostatin A (TSA). After standing for 20 min, the fluorescence intensity was measured at the excitation and emission wavelengths of 360 and 460 nm with a microplate reader. The inhibition rate was calculated from the fluorescence intensity readings of the test wells relative to the control wells, and the IC50 curve and value were determined by GraphPad Prism 6.0 software.

Molecule | inhibition at 2 µM (K562 cells) | HDACs percentage inhibitory rate (PIR) [1] | melting point | K562 percentage inhibitory rate (K562 cells)
CN(C)c1ccc(-c2cc(C(=O)N3CCN(c4ccc(C(=O)NO)cc4)CC3)c3ccccc3n2)cc1 [Compound D18, 4-(4-(2-(4-(Dimethylamino)Phenyl)Quinoline-4-Carbonyl)Piperazin-1-yl)-N-Hydroxybenzamide] | 48.3 ± 0.31% | 48.37 ± 0.35% | 200.6 to 201.2 °C | 
O=C(NO)c1ccc(N2CCN(C(=O)c3cc(-c4ccc(NC(=O)c5ccccc5F)cc4)nc4ccccc34)CC2)cc1 [Compound D22, 2-Fluoro-N-(4-(4-(4-(4-(Hydroxycarbamoyl)Phenyl)Piperazine-1-Carbonyl)Quinolin-2-yl)Phenyl)Benzamide] | 65.1 ± 1.34% | 56.86 ± 1.79% | 163.5 to 164.2 °C | 
O=C(NO)c1ccc(N2CCN(C(=O)c3cc(-c4ccccc4)nc4ccccc34)CC2)cc1 [Compound D1, N-Hydroxy-4-(4-(2-Phenylquinoline-4-Carbonyl)Piperazin-1-yl)Benzamide] | 46.58 ± 0.35% | 57.96 ± 0.43% | 213.8 to 214.8 °C | 
O=C(NO)c1ccc(N2CCN(C(=O)c3cc(-c4ccc(NC(=O)c5ccc(F)cc5)cc4)nc4ccccc34)CC2)cc1 [Compound D20, 4-Fluoro-N-(4-(4-(4-(4-(Hydroxycarbamoyl)Phenyl)Piperazine-1-Carbonyl)Quinolin-2-yl)Phenyl)Benzamide] | 45.9 ± 1.34% | 48.46 ± 0.68% | 178.3 to 180.3 °C | 
O=C(NO)c1ccc(N2CCN(C(=O)c3cc(-c4cccc(Cl)c4)nc4ccccc34)CC2)cc1 [Compound D8, 4-(4-(2-(3-Chlorophenyl)Quinoline-4-Carbonyl)Piperazin-1-yl)-N-Hydroxybenzamide] | 42.9 ± 1.02% | 51.81 ± 4.07% | 207.1 to 208.9 °C | 
O=C(NO)c1ccc(N2CCN(C(=O)c3cc(-c4ccccc4F)nc4ccccc34)CC2)cc1 [Compound D10, 4-(4-(2-(2-Fluorophenyl)Quinoline-4-Carbonyl)Piperazin-1-yl)-N-Hydroxybenzamide] | 40.9 ± 1.22% | 58.52 ± 0.64% | 172.5 to 173.3 °C | 
O=C(NO)c1ccc(N2CCN(C(=O)c3cc(-c4cc(F)cc(F)c4)nc4ccccc34)CC2)cc1 [Compound D12, 4-(4-(2-(3,5-Difluorophenyl)Quinoline-4-Carbonyl)Piperazin-1-yl)-N-Hydroxybenzamide] | 51.8 ± 1.35% | 74.91 ± 0.35% | 221.8 to 222 °C | 
3,5-Difluoro-N-(4-(4-(4-(4-(Hydroxycarbamoyl)Phenyl)Piperazine-1-Carbonyl)Quinolin-2-yl)Phenyl)Benzamide [Compound D25] |  | 54.74 ± 1.41% |  | 37.64 ± 0.13%
O=C(NO)c1ccc(N2CCN(C(=O)c3cc(-c4ccc(NC(=O)c5cccc(F)c5)cc4)nc4ccccc34)CC2)cc1 [Compound D26, 3-Fluoro-N-(4-(4-(4-(4-(Hydroxycarbamoyl)Phenyl)Piperazine-1-Carbonyl)Quinolin-2-yl)Phenyl)Benzamide] | 43.1 ± 0.64% | 49.99 ± 0.32% | 232.6 to 232.9 °C | 
O=C(NO)c1ccc(N2CCN(C(=O)c3cc(-c4ccc(NC(=O)c5ccccc5Cl)cc4)nc4ccccc34)CC2)cc1 [Compound D23, 2-Chloro-N-(4-(4-(4-(4-(Hydroxycarbamoyl)Phenyl)Piperazine-1-Carbonyl)Quinolin-2-yl)Phenyl)Benzamide] | 61.92 ± 0.42% | 62.91 ± 2.26% | 167.2 to 167.8 °C | 
O=C(NO)c1ccc(N2CCN(C(=O)c3cc(-c4ccc(C(F)(F)F)cc4)nc4ccccc34)CC2)cc1 [Compound D7, N-Hydroxy-4-(4-(2-(4-(Trifluoromethyl)Phenyl)Quinoline-4-Carbonyl)Piperazin-1-yl)Benzamide] | 40.3 ± 1.2% | 52.60 ± 2.37% | 212.7 to 213.9 °C | 
O=C(NO)c1ccc(N2CCN(C(=O)c3cc(-c4ccc(NC(=O)c5cccc(Br)c5)cc4)nc4ccccc34)CC2)cc1 [Compound D21, 3-Bromo-N-(4-(4-(4-(4-(Hydroxycarbamoyl)Phenyl)Piperazine-1-Carbonyl)Quinolin-2-yl)Phenyl)Benzamide] | 47.6 ± 0.92% | 50.26 ± 1.41% | 170.5 to 170.8 °C | 
O=C(NO)c1ccc(N2CCN(C(=O)c3cc(-c4ccc(NC(=O)c5ccccc5)cc4)nc4ccccc34)CC2)cc1 [Compound D19, 4-(4-(2-(4-Benzamidophenyl)Quinoline-4-Carbonyl)Piperazin-1-yl)-N-Hydroxybenzamide] | 59.19 ± 0.35% | 45.31 ± 0.68% | 173.9 to 174.8 °C | 
O=C(NO)c1ccc(N2CCN(C(=O)c3cc(-c4ccc(Cl)cc4)nc4ccccc34)CC2)cc1 [Compound D3, 4-(4-(2-(4-Chlorophenyl)Quinoline-4-Carbonyl)Piperazin-1-yl)-N-Hydroxybenzamide] | 46.4 ± 0.53% | 49.43 ± 3.73% | 228.1 to 229.2 °C | 
O=C(NO)c1ccc(N2CCN(C(=O)c3cc(-c4ccc(F)cc4)nc4ccccc34)CC2)cc1 [Compound D4, 4-(4-(2-(4-Fluorophenyl)Quinoline-4-Carbonyl)Piperazin-1-yl)-N-Hydroxybenzamide] | 32.43 ± 0.2% | 47.79 ± 1.34% | 163.5 to 164.8 °C | 
O=C(NO)c1ccc(N2CCN(C(=O)c3cc(-c4cc(F)ccc4F)nc4ccccc34)CC2)cc1 [Compound D27, 4-(4-(2-(2,5-Difluorophenyl)Quinoline-4-Carbonyl)Piperazin-1-yl)-N-Hydroxybenzamide] | 63.79 ± 0.13% | 59.30 ± 0.74% | 196.9 to 198 °C | 
COc1cccc(-c2cc(C(=O)N3CCN(c4ccc(C(=O)NO)cc4)CC3)c3ccccc3n2)c1 [Compound D11, N-Hydroxy-4-(4-(2-(3-Methoxyphenyl)Quinoline-4-Carbonyl)Piperazin-1-yl)Benzamide] | 46.09 ± 0.43% | 63.49 ± 4.61% | 179.8 to 180.9 °C | 
COc1ccccc1-c1cc(C(=O)N2CCN(c3ccc(C(=O)NO)cc3)CC2)c2ccccc2n1 [Compound D13, N-Hydroxy-4-(4-(2-(2-Methoxyphenyl)Quinoline-4-Carbonyl)Piperazin-1-yl)Benzamide] | 43.81 ± 0.26% | 54.24 ± 0.18% | 224 to 224.9 °C | 
O=C(NO)c1ccc(N2CCN(C(=O)c3cc(-c4ccc(Br)cc4)nc4ccccc34)CC2)cc1 [Compound D2, 4-(4-(2-(4-Bromophenyl)Quinoline-4-Carbonyl)Piperazin-1-yl)-N-Hydroxybenzamide] | 48.8 ± 1.32% | 59.50 ± 0.35% | 231.7 to 232.8 °C | 
CSc1ccc(-c2cc(C(=O)N3CCN(c4ccc(C(=O)NO)cc4)CC3)c3ccccc3n2)cc1 [Compound D5, N-Hydroxy-4-(4-(2-(4-(Methylthio)Phenyl)Quinoline-4-Carbonyl)Piperazin-1-yl)Benzamide] | 47.4 ± 1.11% | 50.93 ± 0.93% | 177.2 to 179.6 °C | 
COc1ccc(-c2cc(C(=O)N3CCN(c4ccc(C(=O)NO)cc4)CC3)c3ccccc3n2)cc1 [Compound D6, N-Hydroxy-4-(4-(2-(4-Methoxyphenyl)Quinoline-4-Carbonyl)Piperazin-1-yl)Benzamide] | 51.55 ± 0.25% | 52.31 ± 3.09% | 184.3 to 186.8 °C | 
4-(4-(2-(4-Fluoro-3-Methylphenyl)Quinoline-4-Carbonyl)Piperazin-1-yl)-N-Hydroxybenzamide [Compound D17] |  | 47.41 ± 1.03% |  | 41.91 ± 0.13%
O=C(NO)c1ccc(N2CCN(C(=O)c3cc(-c4ccccc4Cl)nc4ccccc34)CC2)cc1 [Compound D14, 4-(4-(2-(2-Chlorophenyl)Quinoline-4-Carbonyl)Piperazin-1-yl)-N-Hydroxybenzamide] | 48.3 ± 1.02% | 49.74 ± 2.06% | 235 to 236.4 °C | 
Cc1cccc(-c2cc(C(=O)N3CCN(c4ccc(C(=O)NO)cc4)CC3)c3ccccc3n2)c1 [Compound D9, N-Hydroxy-4-(4-(2-(m-Tolyl)Quinoline-4-Carbonyl)Piperazin-1-yl)Benzamide] | 45.81 ± 0.33% | 49.33 ± 0.82% | 199.2 to 199.7 °C | 
O=C(NO)c1ccc(N2CCN(C(=O)c3cc(-c4cccc(F)c4)nc4ccccc34)CC2)cc1 [Compound D15, 4-(4-(2-(3-Fluorophenyl)Quinoline-4-Carbonyl)Piperazin-1-yl)-N-Hydroxybenzamide] | 26.2 ± 0.62% | 58.80 ± 2.95% | 225 to 226.3 °C | 
N-Hydroxy-4-(4-(2-(o-Tolyl)Quinoline-4-Carbonyl)Piperazin-1-yl)Benzamide [Compound D16] |  | 49.04 ± 31.22% |  | 15.26 ± 0.33%
